Reference: patent US20200253864A1, “VOLATILE ANESTHETIC COMPOSITIONS COMPRISING EXTRACTIVE SOLVENTS FOR REGIONAL ANESTHESIA AND/OR PAIN RELIEF” (The Board of Regents of the University of Texas System, priority 2008, published 2020)
“And” between values parts separate entries of the source, which are not always exact repeats. Equal entries are not always repeated.

Experiments:
rats = experiment: Plantar Heat Stimulation Test (paw withdrawal latency) after subcutaneous injection into hindpaw; format: in vivo, rat; conditions: for Antinociceptive effect, treated versus untreated (contralateral) paw: 100 μl subcutaneously into hindpaw (pure isoflurane n=4; 2% lidocaine n=3), P<0.05
Protocol: Intraplanar Administration of Isoflurane: 100 μl of pure form Isoflurane or 100 μl of 2% Lidocaine was injected subcutaneously into the planar surface of the hindpaw. Every rat, the contralateral hindpaw, served as its own control.
Measurement of Paw Withdrawal Latency: Rats are tested for response to thermal stimulation using radiant heat (Planar Analgesia Instrument, UgoBasile, Italy). After the rats acclimate for 15 min under the acrylic boxes that allow minimal movement, the heat source was positioned beneath the mid-plantar surface of the hind paw. Withdrawal latency is defined as the period of time from the beginning of the thermal stimulation to the brisk withdrawal of the hind paw. To avoid tissue damage, a cutoff time of 22s was set. Thermal stimulation was applied three times to each hind paw at an inter-stimulus interval of 3-5 min. Thermalnociceptive threshold was assessed before and after the treatment. An increase in the withdrawal threshold in the treated paw compared to the control paw is assessed as analgesic activity of the tested formulation.
Statistical Analysis: For statistical comparison, student paired t-test analysis was used. Differences were considered significant at P<0.05.

Sprague-Dawley rats = experiment: Intrathecal injection of isoflurane or sevoflurane, hotplate test (thermal withdrawal latency); format: in vivo, rat; conditions: for Thermal withdrawal latency, Average (per rat): average of three tests, both paws; for Thermal withdrawal latency, Group Average: four rats; for Thermal withdrawal latency, Test 1 Left / Thermal withdrawal latency, Test 1 Right / Thermal withdrawal latency, Test 2 Left / Thermal withdrawal latency, Test 2 Right / Thermal withdrawal latency, Test 3 Left / Thermal withdrawal latency, Test 3 Right: individual rats, cutoff 25 seconds; for Adverse effects / Full recovery from the intrathecal injection (return to thermal latency baseline): intrathecal 2 microliters, rats; for Analgesic effect: intrathecally delivered dose of 2 microliters
Protocol: This study was designed to evaluate efficacy of direct intrathecal injection of anesthetic agent gases in reducing pain and providing analgesia. The study was conducted over a one (1) month period using anesthetic gases isoflurane and sevoflurane injected directly intrathecally or dissolved in saline as shown in the studies below. The subject animal used was the rat, since the rat has a well-established model of pain/analgesia testing. In particular, Sprague-Dawley rats weighing over 350gm were used. The rats were anesthetized with pentobarbital (50mg/kg), and the anesthetic depth of the animals was determined by corneal reflex and paw withdrawal reflex to a noxious stimulus.
[…]. A midline surgical dissection of the posterior neck muscles was performed to obtain access to the occipito-atlantoid membrane. This membrane was identified and then dissected. A sterile polyethylene catheter was introduced in the subarachnoid space until the lumbar enlargement of the spinal cord (approximately 7-8 cm measured in each animal). The surgical wound was closed, first suturing the neck muscles with 3-0 silk sutures and then closing the skin incision with staples.
After the surgery, the rats were moved to their cages and a radiant lamp was placed over the cages so that the rats would not undergo anesthetic-induced hypothermia. The rats were continuously monitored from the end of the surgery until they were fully awake. Rats showing any motor impairment after surgery were euthanized.
On the fifth day after surgery, those rats without wound infection or motor dysfunction were transported to the pain behavioral lab to enter the intrathecal study with volatile anesthetics. Twelve rats were selected for the study. All these rats had intrathecal catheters.
Isoflurane (1-chloro-2,2,2-trifluoroethyl difluoromethyl ether) and sevoflurane (fluoromethyl 2,2,2-trifluoro-1-(trifluoromethyl) ethyl ether) were used as the halogenated ether compounds. Both of these are halogenated volatile anesthetic agents, with isoflurane manufactured by Baxter and sevoflurane manufactured by Abbott Laboratories. The 12 rats were divided into 3 groups of four rats each for study A and B.
In the first group, 2 microliters of preservative-free normal saline was injected via the intrathecal catheter into each rat. This catheter was then flushed with preservative-free normal saline. Pain behavioral testing on this group was then performed.
In the second group, 2 microliters of isoflurane was injected via the intrathecal catheter into each rat. This catheter was also flushed with preservative-free normal saline. This group was then subjected to pain behavioral testing.
In the third group, 2 microliters of sevoflurane was injected via the intrathecal catheter into each rat. This catheter was also flushed with preservative-free normal saline. This group was then subjected to pain behavioral testing.
A “hotplate” behavioral test was used to evaluate pain perception and analgesia. The pain behavioral testing model used in these studies have been well established by Tony Yaksh. (See, e.g. Chaplan et al., 1994; Yaksh et al., 2001; Kim and Chung, 1992; Sorkin et al., 2001). This test involves determining how quickly a rat will withdraw its hind paw in response to a noxious stimulus such as a radiant heat source placed directly underneath its paw. This time for withdrawal is known as “thermal withdrawal latency”.
Rats were transferred for testing onto a modified Hargreaves apparatus with a heated glass plate maintained at 25° C. (see Hargreaves et al., 1988). A focused projection bulb below the plate was aimed at the mid-plantar surface of the paw. A photodiode-activated timer measured the withdrawal latency, and a cutoff time of 25 seconds was used to prevent tissue damage. Thermal withdrawal latency to radiant heat was measured at 5 minutes and 30 minutes after each intrathecal injection. Each paw was tested three times, and the results were averaged. […]

[1] = Stability/volatility: weighing remaining isoflurane in uncapped vials over time; format: physicochemical; conditions: for Effect of the solvent on the volatility of isoflurane: solution versus pure isoflurane (Table 6)
Protocol: The stability of isoflurane in the compositions was determined in two ways. Firstly, the compositions were examined for the presence of phase separation at the macroscopic level. Secondly, isoflurane content of the compositions were determined by weighing the remaining isoflurane in the composition when they were left uncapped over time. […] The other vials received varying amounts of isoflurane. They were left uncapped in the hood. Over time (0, 0.4, 1 , 16 , 24 h), the vials were weighed to see if the isoflurane stayed in the composition or evaporated. The amount evaporated over time in the vehicle was subtracted from that in the isoflurane composition, and therefore the amount of isoflurane in the vehicle was roughly determined at each time point.
Pure form of isoflurane is a volatile agent. In order to determine the volatility of isoflurane, two vials received the indicated amounts of pure form of isoflurane. The vials were placed in the chemical fume hood and left uncapped. The vials were weighed in the indicated times to determine the amount of evaporated isoflurane. As it is shown in the table below 0.7893g isoflurane was evaporated within 3 hrs whereas 3.4825 g isoflurane took approximately 8 hrs to evaporate completely. These amounts of isoflurane are similar to the amounts of isoflurane that were used to prepare isoflurane (iso) compositions as shown below.

[2] = 100 μl subcutaneously into hindpaw
[3] = 5 minutes after 2 microliters intrathecal
[4] = 5 minutes after 2 microliters intrathecal, saline control group 8.33
[5] = 30 minutes after 2 microliters intrathecal
[6] = 30 minutes after 2 microliters intrathecal, saline control group 8.40

SMILES	Start of the antinociceptive effect (rats; [2]) [min]	Antinociceptive effect, treated versus untreated (contralateral) paw (rats)	Thermal withdrawal latency, Average (per rat) (Sprague-Dawley rats; [3])	Thermal withdrawal latency, Group Average (Sprague-Dawley rats; [4]) [s]	Thermal withdrawal latency, Test 1 Left (Sprague-Dawley rats; [3])	Thermal withdrawal latency, Test 1 Right (Sprague-Dawley rats; [3])	Thermal withdrawal latency, Test 2 Left (Sprague-Dawley rats; [3])	Thermal withdrawal latency, Test 2 Right (Sprague-Dawley rats; [3])	Thermal withdrawal latency, Test 3 Left (Sprague-Dawley rats; [3])	Thermal withdrawal latency, Test 3 Right (Sprague-Dawley rats; [3])	Thermal withdrawal latency, Average (per rat) (Sprague-Dawley rats; [5])	Thermal withdrawal latency, Group Average (Sprague-Dawley rats; [6]) [s]	Thermal withdrawal latency, Test 1 Left (Sprague-Dawley rats; [5])	Thermal withdrawal latency, Test 1 Right (Sprague-Dawley rats; [5])	Thermal withdrawal latency, Test 2 Left (Sprague-Dawley rats; [5])	Thermal withdrawal latency, Test 2 Right (Sprague-Dawley rats; [5])	Thermal withdrawal latency, Test 3 Left (Sprague-Dawley rats; [5])	Thermal withdrawal latency, Test 3 Right (Sprague-Dawley rats; [5])	Adverse effects (Sprague-Dawley rats)	Full recovery from the intrathecal injection (return to thermal latency baseline) (Sprague-Dawley rats) [min]	further results
FC(F)OC(Cl)C(F)(F)F (stereo not drawn) [Isoflurane, 1-chloro-2,2,2-trifluoroethyl difluoromethyl ether]	25	significant (P<0.05) antinociceptive effect	19.25 s and 18.21 s and 18.63 s and 17.95 s	18.51	17.23 s and 19.24 s and 18.11 s and 19.71 s	19.81 s and 17.19 s and 19.20 s and 20.31 s	18.91 s and 17.65 s and 19.80 s and 17.18 s	20.38 s and 15.88 s and 17.90 s and 18.34 s	18.82 s and 20.72 s and 20.07 s and 16.38 s	20.34 s and 18.59 s and 16.71 s and 16.75 s	9.48 s and 8.93 s and 10.52 s and 9.21 s	9.53	9.12 s and 6.35 s and 8.37 s and 10.27 s	9.87 s and 9.08 s and 6.32 s and 9.41 s	9.02 s and 8.22 s and 8.45 s and 7.04 s	10.59 s and 7.81 s and 9.48 s and 6.76 s	9.77 s and 11.62 s and 10.48 s and 10.32 s	8.54 s and 10.49 s and 11.03 s and 7.88 s	None of the rats in the study experienced adverse effects	30	Duration of the antinociceptive effect (rats; [2]): continued throughout the experiment; Analgesic effect (Sprague-Dawley rats): analgesic effect; % remaining iso, 0 h ([1]; 0 h): 100%; Time for isoflurane to evaporate ([1]; 0.7893 g pure isoflurane, uncapped): ≤ 3 h; Time for isoflurane to evaporate completely ([1]; 3.4825 g pure isoflurane, uncapped): approximately 8 hrs; % remaining iso, 5 h ([1]; 5 h): 38%; % remaining iso, 7 h ([1]; 7 h): 13%; % remaining iso, 8 h ([1]; 8 h): 3%
CN1CCCC1=O [NMP, N-Methyl-2-pyrrolidone]	–	–	–	–	–	–	–	–	–	–	–	–	–	–	–	–	–	–	–	–	Effect of the solvent on the volatility of isoflurane [1]: reduced the volatility of isoflurane
FCOC(C(F)(F)F)C(F)(F)F [Sevoflurane, fluoromethyl 2,2,2-trifluoro-1-(trifluoromethyl) ethyl ether]	–	–	14.65 s and 13.82 s and 13.14 s and 12.98 s	13.65	14.90 s and 13.38 s and 12.34 s and 11.83 s	13.81 s and 17.19 s and 14.98 s and 10.31 s	15.11 s and 12.31 s and 11.03 s and 12.66 s	13.23 s and 14.29 s and 13.93 s and 13.20 s	14.83 s and 12.01 s and 14.16 s and 12.31 s	16.03 s and 13.75 s and 12.37 s and 17.59 s	8.61 s and 8.35 s and 8.89 s and 9.54 s	8.84	8.54 s and 6.87 s and 8.44 s and 10.93 s	9.23 s and 7.38 s and 10.05 s and 9.55 s	8.29 s and 7.99 s and 11.74 s and 6.68 s	7.30 s and 8.92 s and 9.32 s and 8.67 s	8.87 s and 8.10 s and 6.13 s and 12.11 s	9.43 s and 10.83 s and 7.66 s and 9.27 s	None of the rats in the study experienced adverse effects	30	Analgesic effect (Sprague-Dawley rats): analgesic effect
CCN(CC)CC(=O)Nc1c(C)cccc1C [lidocaine]	5	significant antinociceptive effect	–	–	–	–	–	–	–	–	–	–	–	–	–	–	–	–	–	–	Peak of the antinociceptive effect (rats; [2]): 15 min; Return of the antinociceptive effect to baseline levels (rats; [2]): 45 min
CC(O)CO (stereo not drawn) [propylene glycol]	–	–	–	–	–	–	–	–	–	–	–	–	–	–	–	–	–	–	–	–	Reduction of isoflurane volatility compared with NMP ([1]; Table 10 versus Table 8): not as good as NMP; Effect of the solvent on the volatility of isoflurane [1]: reduced the volatility of isoflurane
